Measurements: US6911446B2, “Methods of modulating serine/threonine protein kinase function with quinazoline-based compounds” (Sugen, Inc., priority 1997, dated 2005)

Key:
[1] = test system: A549 human lung carcinoma cells; assay: Growth of A549 cells (SRB); assay type: cell-based
Procedure: The following assay measures growth rates for A549 cells. The purpose of the assay is to determine the effects of compounds on the growth of A549 human lung carcinoma cells. A549 cells are readily accessible from commercial sources, such as ATCC (CCL185).
• 96-well flat bottom sterile plates • 96-well round bottom sterile plates • sterile 25 mL or 100 mL reservoir • pipets, multi-channel pipetman • sterile pipet tips • sterile 15 mL and 50 mL tubes Reagents: • 0.4% SRB in 1% acetic acid • 10 mM Tris base • 10% TCA • 1% acetic acid • sterile DMSO (Sigma) • compound in DMSO (100 mM or less stock solution) • Trypsin-EDTA (GIBCO BRL) Cell Line and Growth Medium: • A549 human lung carcinoma cells (ATCC CCL185) • 10% fetal calf serum in Ham's F12-K Protocol: Day 0: Cell Plating:
This part of assay is carried out in a laminar flow hood. • 1. Trypsinize cells. Transfer 200 μL of cell suspension to 10 mL of isotone. Count cells with a Coulter Counter. • 2. Dilute cells in growth medium to 20,000 cell/mL. Transfer 100 μL of cells to each well in a 96-well flat bottom plate to give 2000 cells/well. • 3. Use half of plate (4 rows) for each compound and quadruplicate wells for each compound concentration, and a set of 4 wells for medium control. • 4. Gently shake plates to allow for uniform attachment of the cells. • 5. Incubate the plates at 37° C. in a 10% CO2 incubator. Day 1: Addition of Compound:
This part of assay is carried out in a laminar flow hood. • 1. In a 96 well-round bottom plate, add 120 μL of growth medium containing 2×final %DMSO found in highest screening concentration of compound to columns 1 to 11. For example, if the highest screening concentration is 100 μM, and this is made from a 100 mM stock, 1×DMSO is 0.1%, so 2×DMSO is 0.2%. This plate is used to titrate out the compound, 4 rows per compound. • 2. In a sterile 15 mL tube, make a 2×solution of the highest screening concentration of compound in growth medium plus 2×DMSO. 1 mL per cell line is needed. The starting concentration of the compound is usually 100 μM but this concentration may vary depending upon the solubility of the compound. • 3. Transfer 240 μL of the 2×starting compound solution to quadruplicate wells in column 12 of the 96-well round bottom plate. Do 1:2 serial dilutions across the plate from right to left by transferring 120 μL from column 12 to column 11, column 11 to 10 and so on through column 2. Transfer 100 μL of compound dilutions, and 100 μL of medium in column 1, onto 100 μL medium on cells in corresponding wells of 96-well flat bottom plate. Total volume per well should be 200 μL. • 4. Return the plate to the incubator and incubate for 3 days. Day 5: Development of Assay
This part of assay is carried out on the bench. • 1. Aspirate or pour off medium. Add 200 μL cold 10% TCA to each well to fix cells. Incubate plate for at least 60 min. at 4° C. • 2. Discard TCA and rinse wells 5 times with tap water. Dry plates upside down on paper towels. • 3. Stain cells with 100 μL/well 0.4% SRB for 10 min. • 4. Pour off SRB and rinse wells 5 times with 1% acetic acid. Dry plates completely upside down on paper towels. • 5. Solubilize dye with 100 μL/well 10 mM Tris base for 5-10 min. on shaker. • 6. Read plates on Dynatech ELISA Plate Reader at 570 nm with reference at 630 nm.

[2] = test system: NIH-3T3 cells expressing RAF-1; assay: Growth of NIH-3T3 cells expressing RAF-1; assay type: cell-based; conditions: Mus musculus, NIH3T3; growth of NIH-3T3 cells overexpressing RAF
Excerpt: The following assay measures growth rates for NIH-3T3 cells expressing RAF-1. The protocol for the assay is described in detail in PCT Publication WO9640116, filed Jun. 5, 1996, by Tang et al., and entitled “Indolinone Compounds for the Treatment of Disease,” incorporated herein by reference in its entirety, including any drawings.

| SMILES | IC50 [1] | IC50 [2] |
| --- | --- | --- |
| Nc1nc(N)c2c(Oc3ccccc3)cccc2n1 [Compound A-1, 2,4-Diamino-5-phenoxyquinazoline] | 15.9 µM | 0.16 µM |
| Nc1nc(N)c2c(Oc3ccc(F)cc3)cccc2n1 [Compound A-7, 2,4-Diamino-5-(4-fluorophenoxy)quinazoline] | 17.7 µM | 1.7 µM |
| CC(C)(C)c1ccc(Oc2cccc3nc(N)nc(N)c23)cc1 [Compound A-8, 2,4-Diamino-5-(4-tert-butylphenoxy)quinazoline] | 77.9 µM | – |
| Cc1ccc(Oc2cccc3nc(N)nc(N)c23)cc1 [Compound A-9, 2,4-Diamino-5-(4-methylphenoxy)quinazoline] | – | 5.9 µM |
| COc1ccccc1Oc1cccc2nc(N)nc(N)c12 [Compound A-22, 2,4-Diamino-5-(2-methoxyphenoxy)quinazoline] | 26 µM | – |
| COc1cccc(Oc2cccc3nc(N)nc(N)c23)c1 [Compound A-23, 2,4-Diamino-5-(3-methoxyphenoxy)quinazoline] | 18 µM | – |
| Nc1ncnc2cccc(Oc3ccc(OCc4ccccc4)cc3)c12 [Compound A-28, 4-Amino-5-(4-benzyloxyphenoxy)quinazoline] | 32 µM | – |
